Values quoted from earlier work as cited in patent US7625901B2, “Substituted monocyclic CGRP receptor antagonists” (Merck & Co., Inc., priority 2006, dated 2009).
No end group written: not given here.

What was measured:
[1] = system: headache induced by CGRP infusion; conditions: control group
[2] = system: acute attacks of migraine; conditions: clinical trials
facial blood flow [3] = conditions: marmoset, electrical stimulation of the trigeminal ganglion
facial blood flow [4] = conditions: rat, trigeminal ganglion stimulation
[5] = system: diameter of the middle meningeal artery; conditions: rats, electrical stimulation of the dura mater, prior administration

Row | Compound | prevention of headache induced by CGRP infusion [1] | treating acute attacks of migraine [2] | block of increase in facial blood flow (facial blood flow [3]) | inhibition of increased facial blood flow (facial blood flow [4]) | block of increased diameter of the middle meningeal artery [5]
1 | NCCCC[C@H](NC(=O)[C@@H](Cc1cc(Br)c(O)c(Br)c1)NC(=O)N1CCC(N2Cc3ccccc3NC2=O)CC1)C(=O)N1CCN(c2ccncc2)CC1 [BIBN4096BS] | able to prevent headache | effective | could be blocked |  | 
2 | CGRP(8-37): a peptide CGRP antagonist; fragment of CGRP that lacks seven N-terminal amino acid residues (VTHRLAGLLSRSGGVVKNNFVPTNVGSKAF; ends and bridges not checked; UniProt P06881 90-119, looked up, fragment) |  |  |  | inhibited | blocked
